In PubChem BioAssay (NCI):
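48-hour exposure; five concentrations; linearly interpolated endpoints. At the GI50, growth is halved. TGI: total growth inhibition.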

Experiments:
Assay in all cases: growth of human tumour cells (NCI), 48 h
M14 melanoma = test system: M14 melanoma
EKVX NSCLC = test system: EKVX NSCLC
UACC-257 melanoma = test system: UACC-257 melanoma
U251 CNS = test system: U251 CNS
CCRF-CEM leukemia = test system: CCRF-CEM leukemia
OVCAR-8 ovarian = test system: OVCAR-8 ovarian
HT29 colon = test system: HT29 colon
HS 578T breast = test system: HS 578T breast
DU-145 prostate = test system: DU-145 prostate
T-47D breast = test system: T-47D breast

## O=C(c1nc2ccc(Cl)cc2[nH]c1=O)C(O)c1cccc([N+](=O)[O-])c1 (configuration not stated)
M14 melanoma
  TGI: > 100 µM
EKVX NSCLC
  TGI: > 100 µM
UACC-257 melanoma
  TGI: > 100 µM
U251 CNS
  TGI: > 100 µM
CCRF-CEM leukemia
  TGI: > 100 µM
OVCAR-8 ovarian
  TGI: > 100 µM
HT29 colon
  TGI: 40.4 µM

## CC/C(=N/O)C(C)C(=O)CCC(=O)Nc1ccc(Cl)cc1 (configuration not stated)
M14 melanoma
  TGI: > 100 µM
EKVX NSCLC
  TGI: > 100 µM
UACC-257 melanoma
  TGI: > 100 µM
U251 CNS
  TGI: > 100 µM
CCRF-CEM leukemia
  TGI: > 100 µM
OVCAR-8 ovarian
  TGI: > 100 µM
HT29 colon
  TGI: > 100 µM

## OCC(O)C(OC1OC(CO)C(O)C(O)C1O)c1nn(-c2ccc(Cl)cc2)c2nc3cc(Cl)c(Cl)cc3nc12 (configuration not stated)
M14 melanoma
  TGI: > 100 µM
EKVX NSCLC
  TGI: > 100 µM
UACC-257 melanoma
  TGI: > 100 µM
U251 CNS
  TGI: > 100 µM
CCRF-CEM leukemia
  TGI: > 100 µM
OVCAR-8 ovarian
  TGI: > 100 µM
HT29 colon
  TGI: > 100 µM

## Cc1cccc(/C=N/N=C(\N)NO)n1
M14 melanoma
  TGI: > 100 µM
EKVX NSCLC
  TGI: > 100 µM
UACC-257 melanoma
  TGI: > 100 µM
U251 CNS
  TGI: > 100 µM
CCRF-CEM leukemia
  TGI: > 100 µM
OVCAR-8 ovarian
  TGI: > 100 µM
HT29 colon
  TGI: > 100 µM

## O=C(CC(=O)c1cccc2ccccc12)C(=O)Nc1nccs1
M14 melanoma
  TGI: > 100 µM
EKVX NSCLC
  TGI: > 100 µM
UACC-257 melanoma
  TGI: > 100 µM
U251 CNS
  TGI: > 100 µM
CCRF-CEM leukemia
  TGI: > 100 µM
OVCAR-8 ovarian
  TGI: > 100 µM
HT29 colon
  TGI: > 100 µM

## CCOc1ccc2c(c1)[n+]([O-])c(-c1ccc([N+](=O)[O-])cc1)c(N)[n+]2[O-]
M14 melanoma
  TGI: > 100 µM
EKVX NSCLC
  TGI: > 100 µM
UACC-257 melanoma
  TGI: > 100 µM
U251 CNS
  TGI: > 100 µM
CCRF-CEM leukemia
  TGI: > 100 µM
OVCAR-8 ovarian
  TGI: > 100 µM
HT29 colon
  TGI: > 100 µM

## CN(C)C(=S)/N=C(\N)N(C)C
M14 melanoma
  TGI: > 100 µM
EKVX NSCLC
  TGI: > 100 µM
UACC-257 melanoma
  TGI: > 100 µM
U251 CNS
  TGI: > 100 µM
CCRF-CEM leukemia
  TGI: > 100 µM
OVCAR-8 ovarian
  TGI: > 100 µM
HT29 colon
  TGI: > 100 µM

## CC(C)CCCC(C)[C@H]1CCC2C3CC=C4C[C@@H](OC(=O)CC(CC(=O)[O-])C(=O)[O-])CC[C@]4(C)C3CC[C@@]21C.N.N.[Pt+4] (some centres not stated)
M14 melanoma
  GI50: > 100 µM
  TGI: > 100 µM
EKVX NSCLC
  GI50: > 100 µM
  TGI: > 100 µM
UACC-257 melanoma
  GI50: > 100 µM
  TGI: > 100 µM
U251 CNS
  GI50: > 100 µM
  TGI: > 100 µM
CCRF-CEM leukemia
  GI50: > 100 µM
  TGI: > 100 µM
OVCAR-8 ovarian
  GI50: > 100 µM
  TGI: > 100 µM
HT29 colon
  GI50: > 100 µM
  TGI: > 100 µM

## COc1ccc(C#CC2=C(Br)C(=O)OC2)cc1
HS 578T breast
  GI50: 7.43 µM
  TGI: 28.2 µM
M14 melanoma
  GI50: 10.5 µM
  TGI: 34 µM
EKVX NSCLC
  GI50: 6.9 µM
  TGI: 17 µM
UACC-257 melanoma
  GI50: 11.9 µM
  TGI: 26.4 µM
U251 CNS
  GI50: 1.75 µM
  TGI: 6.48 µM
CCRF-CEM leukemia
  GI50: 3.98 µM
  TGI: > 50 µM
OVCAR-8 ovarian
  GI50: 9.47 µM
  TGI: 39 µM
DU-145 prostate
  GI50: 5.44 µM
  TGI: 11.4 µM
HT29 colon
  GI50: 2.42 µM
  TGI: 10.5 µM

## CNC(=O)NCCCCC(NC(=O)OCc1ccccc1)C(=O)OCc1ccccc1 (configuration not stated)
M14 melanoma
  TGI: 31.3 µM
EKVX NSCLC
  TGI: > 100 µM
UACC-257 melanoma
  TGI: 34.5 µM
U251 CNS
  TGI: 54.4 µM
CCRF-CEM leukemia
  TGI: 38.5 µM
OVCAR-8 ovarian
  TGI: 67.2 µM
HT29 colon
  TGI: > 100 µM

## COC(=O)c1ccc(N/C=C(/C#N)c2ccsc2)cc1
EKVX NSCLC
  TGI: 31.4 µM
UACC-257 melanoma
  TGI: > 100 µM
U251 CNS
  TGI: 20.3 µM
CCRF-CEM leukemia
  TGI: > 100 µM
OVCAR-8 ovarian
  TGI: 19.5 µM
HT29 colon
  TGI: 25.3 µM

## CC(C)=CC1(C)/C(=N\O)C(C)(CC(C)C)C(=O)N1O (configuration not stated)
M14 melanoma
  TGI: > 100 µM
EKVX NSCLC
  TGI: > 100 µM
UACC-257 melanoma
  TGI: > 100 µM
U251 CNS
  TGI: > 100 µM
CCRF-CEM leukemia
  TGI: > 100 µM
OVCAR-8 ovarian
  TGI: > 100 µM
HT29 colon
  TGI: > 100 µM

## O=C(Cc1ccccc1)N/N=C(/c1nc2ccc([N+](=O)[O-])cc2[nH]c1=O)C(O)c1ccco1 (configuration not stated)
M14 melanoma
  TGI: > 100 µM
EKVX NSCLC
  TGI: > 100 µM
UACC-257 melanoma
  TGI: > 100 µM
U251 CNS
  TGI: > 100 µM
CCRF-CEM leukemia
  TGI: > 100 µM
OVCAR-8 ovarian
  TGI: > 100 µM
HT29 colon
  TGI: > 100 µM

## CCOC(=O)C1=C(Nc2cccc3ccccc23)OCC1=O
M14 melanoma
  TGI: > 100 µM
EKVX NSCLC
  TGI: > 100 µM
UACC-257 melanoma
  TGI: > 100 µM
U251 CNS
  TGI: > 100 µM
CCRF-CEM leukemia
  TGI: > 100 µM
OVCAR-8 ovarian
  TGI: > 100 µM
HT29 colon
  TGI: > 100 µM

## CC(C)(C)c1cc(C#N)c2c(c1)C(=O)OC2(c1ccccc1)c1ccccc1C#N (configuration not stated)
M14 melanoma
  TGI: > 100 µM
EKVX NSCLC
  TGI: > 100 µM
UACC-257 melanoma
  TGI: > 100 µM
U251 CNS
  TGI: > 100 µM
CCRF-CEM leukemia
  TGI: > 100 µM
OVCAR-8 ovarian
  TGI: > 100 µM
HT29 colon
  TGI: > 100 µM

## NC1=C(/C(N)=N/O)C(c2ccccc2)c2ccc3ccccc3c2O1 (configuration not stated)
HS 578T breast
  GI50: 0.276 µM
  TGI: > 77.6 µM
M14 melanoma
  GI50: 0.208 µM
  TGI: 21.1 µM
EKVX NSCLC
  GI50: 1.01 µM
  TGI: > 100 µM
UACC-257 melanoma
  GI50: 25.1 µM
  TGI: > 100 µM
U251 CNS
  GI50: 0.41 µM
  TGI: 19.8 µM
CCRF-CEM leukemia
  GI50: 0.388 µM
  TGI: > 62.8 µM
OVCAR-8 ovarian
  GI50: 0.725 µM
  TGI: > 92.9 µM
DU-145 prostate
  GI50: 0.463 µM
  TGI: > 37.2 µM
HT29 colon
  GI50: 1.16 µM
  TGI: > 100 µM

## Cn1c(=S)c2[nH]c(SCc3cccnc3)nc2n(C)c1=O
T-47D breast
  TGI: > 100 µM
HS 578T breast
  TGI: > 100 µM
M14 melanoma
  TGI: > 100 µM
EKVX NSCLC
  TGI: > 100 µM
UACC-257 melanoma
  TGI: > 100 µM
U251 CNS
  TGI: > 100 µM
OVCAR-8 ovarian
  TGI: > 100 µM
DU-145 prostate
  TGI: > 100 µM
HT29 colon
  TGI: > 100 µM

## CC(C)(C)[Si](C)(C)O/N=C\c1cccc(O[Si](C)(C)C(C)(C)C)c1
M14 melanoma
  TGI: 29.4 µM
EKVX NSCLC
  TGI: 36.9 µM
UACC-257 melanoma
  TGI: 46.2 µM
U251 CNS
  TGI: 31.4 µM
CCRF-CEM leukemia
  TGI: 41.7 µM
OVCAR-8 ovarian
  TGI: 39.6 µM
HT29 colon
  TGI: 31 µM

## COc1ccc2c(ccc3oc([N+](=O)[O-])cc32)c1
T-47D breast
  GI50: 0.448 µM
  TGI: 8.05 µM
HS 578T breast
  GI50: 0.301 µM
  TGI: 1.58 µM
M14 melanoma
  GI50: 0.0454 µM
  TGI: 0.186 µM
UACC-257 melanoma
  GI50: 0.137 µM
  TGI: 0.43 µM
U251 CNS
  GI50: 0.197 µM
  TGI: 0.578 µM
CCRF-CEM leukemia
  GI50: 0.09 µM
  TGI: > 40.7 µM
OVCAR-8 ovarian
  GI50: 0.18 µM
  TGI: 1.2 µM
DU-145 prostate
  GI50: 0.191 µM
  TGI: 1.14 µM
HT29 colon
  GI50: 0.202 µM
  TGI: 0.874 µM

## C=CC(=O)N1CCC(CNc2ncnc(N)c2-c2ccc(Oc3ccccc3)cc2)CC1
HS 578T breast
  GI50: 24 µM
  TGI: 95.2 µM
M14 melanoma
  GI50: 31.6 µM
  TGI: > 100 µM
EKVX NSCLC
  GI50: 24.1 µM
  TGI: > 100 µM
UACC-257 melanoma
  GI50: 38.5 µM
  TGI: > 100 µM
U251 CNS
  GI50: 25.7 µM
  TGI: > 100 µM
CCRF-CEM leukemia
  GI50: 27.2 µM
  TGI: > 100 µM
OVCAR-8 ovarian
  GI50: 27.5 µM
  TGI: > 100 µM
DU-145 prostate
  GI50: 32.9 µM
  TGI: > 100 µM
HT29 colon
  GI50: 30.7 µM
  TGI: > 100 µM

## COC(=O)CCC(=O)Nc1cc(C)ccc1C
M14 melanoma
  TGI: > 100 µM
EKVX NSCLC
  TGI: > 100 µM
UACC-257 melanoma
  TGI: > 100 µM
U251 CNS
  TGI: > 100 µM
CCRF-CEM leukemia
  TGI: > 100 µM
OVCAR-8 ovarian
  TGI: > 100 µM
HT29 colon
  TGI: > 100 µM

## Cc1ccc(Nn2c(SCC(=O)Nc3nc(-c4ccccc4)cs3)nc(C)c2C)cc1
T-47D breast
  GI50: 1.85 µM
  TGI: 10.4 µM
HS 578T breast
  GI50: 34.1 µM
  TGI: > 100 µM
M14 melanoma
  GI50: 3.7 µM
  TGI: 48.6 µM
EKVX NSCLC
  GI50: 1.39 µM
  TGI: 5.61 µM
UACC-257 melanoma
  GI50: 2.12 µM
  TGI: 9.29 µM
U251 CNS
  GI50: 4.5 µM
  TGI: > 100 µM
OVCAR-8 ovarian
  GI50: 3.79 µM
  TGI: > 100 µM
DU-145 prostate
  GI50: 9.75 µM
  TGI: 64.6 µM
HT29 colon
  GI50: 4.37 µM
  TGI: 28.2 µM
